“And” between values parts separate entries of the source, which are not always exact repeats. Equal values may be shown once. Inconclusive results and toxic doses are left out.
System: P388 leukemia ip, CD2F1 mice, survival T/C
Assay: NCI In Vivo Anticancer Drug Screen. Data for tumor model P388 Leukemia (intraperitoneal) in CD2F1 (CDF1) mice
Conditions: endpoint: median survival time, higher = longer survival
How it was run: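 Mice carrying the transplanted tumor received test compound or vehicle. Survival was recorded in each group, and the value is the treated-group measurement divided by that of the vehicle-treated control group.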

[1] = dose: 50.0 mg/kg/injection, schedule: Q01DX009 (ip), vehicle: Klucel (hydroxypropylcellulose) (HPC)
[2] = dose: 100.0 mg/kg/injection, schedule: Q01DX009 (ip), vehicle: Klucel (hydroxypropylcellulose) (HPC)
[3] = dose: 200.0 mg/kg/injection, schedule: Q01DX009 (ip), vehicle: Klucel (hydroxypropylcellulose) (HPC)
[4] = dose: 100.0 mg/kg/injection, schedule: Q01DX009 (ip), vehicle: saline
[5] = dose: 200.0 mg/kg/injection, schedule: Q01DX009 (ip), vehicle: saline
[6] = dose: 25.0 mg/kg/injection, schedule: Q04DX003 (ip), vehicle: saline with Tween-80
[7] = dose: 50.0 mg/kg/injection, schedule: Q04DX003 (ip), vehicle: saline with Tween-80
[8] = dose: 100.0 mg/kg/injection, schedule: Q04DX003 (ip), vehicle: saline with Tween-80
[9] = dose: 200.0 mg/kg/injection, schedule: Q04DX003 (ip), vehicle: saline with Tween-80
[10] = dose: 400.0 mg/kg/injection, schedule: Q04DX003 (ip), vehicle: saline with Tween-80
[11] = dose: 60.0 mg/kg/injection, schedule: Q01DX005 (ip), vehicle: saline
[12] = dose: 120.0 mg/kg/injection, schedule: Q01DX005 (ip), vehicle: saline
[13] = dose: 240.0 mg/kg/injection, schedule: Q01DX005 (ip), vehicle: saline
[14] = dose: 60.0 mg/kg/injection, schedule: Q01DX005 (ip), vehicle: Klucel (hydroxypropylcellulose) (HPC)
[15] = dose: 50.0 mg/kg/injection, schedule: Q01DX005 (ip), vehicle: saline with Tween-80
[16] = dose: 100.0 mg/kg/injection, schedule: Q01DX005 (ip), vehicle: saline with Tween-80
[17] = dose: 200.0 mg/kg/injection, schedule: Q01DX005 (ip), vehicle: saline with Tween-80

With `CN(N)c1nnnn1-c1ccccc1` the T/C [1] was 104 % of control, the T/C [2] was 117 % of control and the T/C [3] was 113 % of control.

With `Cc1cc(O)c([N+](=O)[O-])c(O)c1` the T/C (dose: 50.0 mg/kg/injection, schedule: Q01DX009 (ip), vehicle: saline) was 96 % of control, the T/C [4] was 103 % of control and the T/C [5] was 100 % of control.

In the case of `CN(c1ccccc1)C1C2=C(CCCC2)OC(=O)C12SCCCS2` (configuration not stated), the T/C [6] is reported as 94 % of control, the T/C [7] is reported as 96 % of control and the T/C [8] is reported as 100 % of control and 98 % of control. For the same compound, the T/C (dose: 132.0 mg/kg/injection, schedule: Q04DX003 (ip), vehicle: saline with Tween-80) was 98 % of control, the T/C [9] was 106 % of control and the T/C (dose: 300.0 mg/kg/injection, schedule: Q04DX003 (ip), vehicle: saline with Tween-80) was 119 % of control. For the same compound, the T/C [10] was 105 % of control and 98 % of control.

`COc1ccc2c(c1OC)C1NCCc3cc4c(cc3C1(OC)C2=O)OCO4` (configuration not stated) was tested, and the T/C (dose: 25.0 mg/kg/injection, schedule: Q01DX005 (ip), vehicle: distilled water + Tween-80 + alcohol) was 109 % of control, the T/C (dose: 50.0 mg/kg/injection, schedule: Q01DX005 (ip), vehicle: distilled water + Tween-80 + alcohol) was 104 % of control and the T/C (dose: 100.0 mg/kg/injection, schedule: Q01DX005 (ip), vehicle: distilled water + Tween-80 + alcohol) was 107 % of control. The T/C (dose: 200.0 mg/kg/injection, schedule: Q01DX005 (ip), vehicle: distilled water + Tween-80 + alcohol) was 103 % of control.

For `O=S(=O)(O)O.[Co+3].[Co+3].[NH2-].[NH2-].[NH2-].[NH2-].[NH2-].[NH2-].[NH2-].[NH2-].[NH2-].[NH2-].[O-][O-]`, the T/C (dose: 25.0 mg/kg/injection, schedule: Q01DX009 (ip), vehicle: saline) was 96 % of control.

In the case of `CC(=O)N(CC1CNc2nc(N)[nH]c(=O)c2N1)c1ccc(C(=O)NC(CCC(=O)O)C(=O)O)cc1` (configuration not stated), the T/C (dose: 50.0 mg/kg/injection, schedule: Q04DX003 (ip), vehicle: saline) is reported as 98 % of control, the T/C (dose: 100.0 mg/kg/injection, schedule: Q04DX003 (ip), vehicle: saline) is reported as 102 % of control and the T/C (dose: 200.0 mg/kg/injection, schedule: Q04DX003 (ip), vehicle: saline) is reported as 95 % of control.

In the case of `NC(=O)NC1CCCC1`, the T/C [8] is reported as 100 % of control, the T/C [9] is reported as 100 % of control and the T/C [10] is reported as 100 % of control.

`COC(=O)[C@@H]1N2C(=O)C=NO[C@H]2SC1(C)C` was tested, and the T/C [11] was 95 % of control, the T/C [12] was 98 % of control and the T/C [13] was 104 % of control.

With `CN1C(=O)N(C)P123OP1(N(C)C(=O)N1C)(N(C)C(=O)N2C)N(C)C(=O)N3C` the T/C [11] was 103 % of control, the T/C [12] was 97 % of control and the T/C [13] was 89 % of control.

In the case of `Cc1ccc(C(=O)CCl)c(C)c1`, the T/C (dose: 12.5 mg/kg/injection, schedule: Q04DX003 (ip), vehicle: saline with Tween-80) is reported as 110 % of control, the T/C [6] is reported as 105 % of control and the T/C [7] is reported as 110 % of control.

In the case of `CSC(SC)(SC)c1cc(C)no1`, the T/C (dose: 60.0 mg/kg/injection, schedule: Q01DX005 (ip), vehicle: saline with Tween-80) is reported as 111 % of control, the T/C (dose: 120.0 mg/kg/injection, schedule: Q01DX005 (ip), vehicle: saline with Tween-80) is reported as 102 % of control and the T/C (dose: 240.0 mg/kg/injection, schedule: Q01DX005 (ip), vehicle: saline with Tween-80) is reported as 104 % of control.

For `CC(=O)NC(CSC(c1ccccc1)c1ccccc1)C(C)=O` (configuration not stated), the T/C [8] was 103 % of control, the T/C [9] was 106 % of control and the T/C [10] was 113 % of control.

For `COc1cc(NS(C)(=O)=O)ccc1Nc1c2ccc(N(C)C)cc2nc2cc(N(C)C)ccc12`, the T/C (dose: 7.5 mg/kg/injection, schedule: Q01DX005 (ip), vehicle: Klucel (hydroxypropylcellulose) (HPC)) was 162 % of control, the T/C (dose: 15.0 mg/kg/injection, schedule: Q01DX005 (ip), vehicle: Klucel (hydroxypropylcellulose) (HPC)) was 168 % of control and 173 % of control and the T/C (dose: 30.0 mg/kg/injection, schedule: Q01DX005 (ip), vehicle: Klucel (hydroxypropylcellulose) (HPC)) was 174 % of control and 182 % of control. The T/C [14] was 98 % of control and 86 % of control.

`COc1cc2c(cc1OC)-c1c(C)c3ccc(OC)c(NCCO)c3c[n+]1CC2` was tested, and the T/C (dose: 50.0 mg/kg/injection, schedule: Q04DX003 (ip), vehicle: water) was 102 % of control and the T/C (dose: 100.0 mg/kg/injection, schedule: Q04DX003 (ip), vehicle: water) was 107 % of control.

`Clc1c2ccccc2[se][n+]1Cc1ccccc1` was tested, and the T/C (dose: 12.5 mg/kg/injection, schedule: Q01DX009 (ip), vehicle: Klucel (hydroxypropylcellulose) (HPC)) was 104 % of control and 108 % of control and 111 % of control, the T/C (dose: 25.0 mg/kg/injection, schedule: Q01DX009 (ip), vehicle: Klucel (hydroxypropylcellulose) (HPC)) was 105 % of control and 106 % of control and 112 % of control and the T/C [1] was 105 % of control and 107 % of control and 121 % of control. For the same compound, the T/C [2] was 106 % of control and 110 % of control.

With `C#Cc1cccc(NC(=O)c2ccc(Cl)cc2Cl)c1` the T/C [14] was 100 % of control, the T/C (dose: 120.0 mg/kg/injection, schedule: Q01DX005 (ip), vehicle: Klucel (hydroxypropylcellulose) (HPC)) was 104 % of control and the T/C (dose: 240.0 mg/kg/injection, schedule: Q01DX005 (ip), vehicle: Klucel (hydroxypropylcellulose) (HPC)) was 105 % of control.

In the case of `Fc1ccc(NC(=S)SCc2ccc3c(c2)OCO3)cc1F`, the T/C [1] is reported as 119 % of control, the T/C [2] is reported as 102 % of control and the T/C [3] is reported as 86 % of control.

In the case of `CO[C@@H]1[C@@H](O)c2ccccc2N1C(C)=O`, the T/C [11] is reported as 104 % of control, the T/C [12] is reported as 102 % of control and the T/C [13] is reported as 104 % of control.

With `CCNc1ccc2c(-c3ccccc3C(=O)O)c3ccc(=[N+](CC)CC)cc-3oc2c1` the T/C [15] was 105 % of control and the T/C [16] was 95 % of control.

With `CC(=O)N(C)OS(=O)(=O)c1ccc(C)cc1` the T/C (dose: 50.0 mg/kg/injection, schedule: Q01DX001 (ip), vehicle: saline with Tween-80) was 102 % of control, the T/C (dose: 100.0 mg/kg/injection, schedule: Q01DX001 (ip), vehicle: saline with Tween-80) was 105 % of control and the T/C (dose: 200.0 mg/kg/injection, schedule: Q01DX001 (ip), vehicle: saline with Tween-80) was 105 % of control. The T/C (dose: 400.0 mg/kg/injection, schedule: Q01DX001 (ip), vehicle: saline with Tween-80) was 95 % of control.

With `CCOC(=O)c1cc(Br)c(=O)n(C)c1` the T/C [15] was 96 % of control, the T/C [16] was 95 % of control and the T/C [17] was 89 % of control.

`CC1(O)c2ccccc2-c2nc3ccccc3nc21` (configuration not stated) was tested, and the T/C (dose: 100.0 mg/kg/injection, schedule: Q04DX003 (ip), vehicle: saline sonified) was 110 % of control, the T/C (dose: 200.0 mg/kg/injection, schedule: Q04DX003 (ip), vehicle: saline sonified) was 110 % of control and the T/C (dose: 400.0 mg/kg/injection, schedule: Q04DX003 (ip), vehicle: saline sonified) was 100 % of control.

For `CS(=O)(=O)OCCCCO`, the T/C (dose: 100.0 mg/kg/injection, schedule: Q01DX009 (ip), vehicle: saline with Tween-80) was 100 % of control, the T/C [8] was 100 % of control and the T/C (dose: 200.0 mg/kg/injection, schedule: Q01DX009 (ip), vehicle: saline with Tween-80) was 110 % of control. The T/C [9] was 100 % of control, the T/C (dose: 400.0 mg/kg/injection, schedule: Q01DX009 (ip), vehicle: saline with Tween-80) was 110 % of control and the T/C [10] was 91 % of control.

With `c1ccc(CCn2cccc/c2=N/C(=NC2CCCCC2)NC2CCCCC2)cc1` the T/C (dose: 100.0 mg/kg/injection, schedule: Q01DX001 (ip), vehicle: suspension in saline) was 91 % of control, the T/C (dose: 200.0 mg/kg/injection, schedule: Q01DX001 (ip), vehicle: suspension in saline) was 88 % of control and the T/C (dose: 400.0 mg/kg/injection, schedule: Q01DX001 (ip), vehicle: suspension in saline) was 92 % of control.

`CCOc1ccc(Cc2nc3c([nH]2)c(=O)n(C)c(=O)n3C)cc1OCC` was tested, and the T/C [7] was 104 % of control, the T/C [8] was 103 % of control and the T/C [9] was 113 % of control and 95 % of control.

`O=C(CSc1nccc(=O)[nH]1)c1ccccc1` was tested, and the T/C [15] was 103 % of control, the T/C [16] was 103 % of control and the T/C [17] was 100 % of control.

In the case of `O=C1NC(O)c2cc(Cl)cc(Cl)c2O1` (configuration not stated), the T/C (dose: 50.0 mg/kg/injection, schedule: Q01DX005 (ip), vehicle: Klucel (hydroxypropylcellulose) (HPC)) is reported as 102 % of control, the T/C (dose: 100.0 mg/kg/injection, schedule: Q01DX005 (ip), vehicle: Klucel (hydroxypropylcellulose) (HPC)) is reported as 102 % of control and the T/C (dose: 200.0 mg/kg/injection, schedule: Q01DX005 (ip), vehicle: Klucel (hydroxypropylcellulose) (HPC)) is reported as 115 % of control.

In the case of `CC1CCC(=O)N1C` (configuration not stated), the T/C [4] is reported as 105 % of control, the T/C [5] is reported as 100 % of control and the T/C (dose: 400.0 mg/kg/injection, schedule: Q01DX009 (ip), vehicle: saline) is reported as 113 % of control.

With `Cc1cc(C)c(C(CC(=O)O)C(CC(=O)O)c2c(C)cc(C)cc2C)c(C)c1` (configuration not stated) the T/C [14] was 90 % of control.

Reference: PubChem BioAssay AID330 (DTP/NCI, 2004)
